# “Also recorded” adds a separate entry of the source.
# Columns and labels:
# [1] = test system: cerebellar stellate cells; assay: Cell-attached recordings of action currents (intrinsic plasticity) after HFS of parallel fibers; format: cell-based, mouse
# Description: (§1) Cerebellum slice preparation: Mice (P21-35) were anesthetized with isoflurane and immediately decapitated. A block of cerebellar vermis was rapidly dissected from the mouse head and submerged in an ice-cold cutting solution perfused with carbogen gas (95% O2, 5% CO2). Cutting solution contains (in mM): 235 sucrose, 2.5 KCl, 1.25 NaH2PO4, 28 NaHCO3, 0.5 CaCl2, 7 MgCl2, 28 D-glucose, 1 ascorbic acid, and 3 sodium pyruvate (pH 7.4; 305-315 mOsmol/L). The block of vermis was then fastened to a platform, transferred to the slicing chamber and again submerged in ice-cold cutting solution, bubbled with carbogen throughout the remainder of the procedure. Thin slices of cerebellar vermis (300 μm) were obtained with a vibrating tissue sectioner (Leica VT1200; Leica Instruments, Nussloch, Germany). The slices were transferred to oxygenated artificial cerebrospinal fluid (ACSF) and held at room temperature (21° C.-23° C.) for at least 1 h before recordings were performed. […]
# (§2) For extracellular stimulations, thin walled borosilicate glass electrodes (OD 1.65 mm, ID 1.15 mm; King Precision Glass Inc, Claremont, CA, USA) were used with a tip resistance of <3 MΩ when filled with ACSF. […] To minimize variability between responses, the stimulating electrode was positioned 50-100 μm away from the recorded cell. […]
# [2] = test system: cerebellar stellate cells; assay: Minimal stimulation protocol, evoked IPSCs before and after HFS (failure rate of GABAergic transmission); format: cell-based, mouse
# [3] = test system: blood vessels (capillaries) in the molecular layer of the cerebellum; assay: Acute slice vascular reactivity, cerebellar vermis slices (U46619 constriction, NMDA dilation); format: cell-based, mouse; set-up: effect on the NMDA response (vasodilation) / vasodilation (direct action on blood vessels): dose or concentration left out as unconfirmed
# [4] = test system: blood vessels in the somatosensory cortex; assay: Acute slice vascular reactivity, somatosensory cortex; format: cell-based, mouse; set-up: effect on the NMDA response (vasodilation) / vasodilation (direct action on blood vessels): dose or concentration left out as unconfirmed
# [5] = test system: middle or posterior cerebral arteries; assay: Vascular reactivity of isolated pressurized cerebral arteries; format: cell-based, mouse; conditions: various concentrations, extraluminal application
# Description: Vascular reactivity: Middle or posterior cerebral arteries were isolated from both WT (n=9) and Fmr1-KO (n=4) mice and vessel diameter was measured using video microscopy (Living Systems Instrumental, Burlington, VT) as previously described. Blood vessels were cannulated in a closed sac preparation in 1×KREBS buffer, and gradually pressurized to 60 mmHg. Vasoconstriction was measured in response to extraluminal application of either thromboxane A2 receptor agonist U46619, NMDA, or acetylcholine (ACh) at increasing concentrations (10-9 to 10-3 mol/L, Tocris Bioscience Ellisville, MO, USA). Data is presented as a percentage change from the basal diameter.
# [6] = test system: cerebellar stellate cells; assay: Current-clamp recordings of PF-evoked synaptic events (GABAR plasticity); format: cell-based, mouse; conditions: Fmr1 KO stellate cells, 100 μM sildenafil
# Description: as §1, §2
# [7] = test system: cerebellar stellate cells; assay: Voltage-clamp recordings of pharmacologically-isolated GABAR currents, HFS paired with depolarization; format: cell-based, mouse; conditions: Fmr1 KO stellate cells
# Description: as §1, §2
# Fmr1 KO mice [8] = assay: Prepulse inhibition of the acoustic startle response; format: in vivo, mouse; conditions: single dose of sildenafil 7.5 mg/kg i.p.
# Description: Behavior experiments-prepulse inhibition: PPI of the acoustic startle response (ASR) was studied in post-pubertal (PD 56-90) animals using an SR-LAB system (San Diego Instruments, San Diego, CA, USA) comprising two sound-attenuating chambers, each equipped with a cylindrical Plexiglas animal enclosure (length 16 cm, inner diameter 8.2 cm). A speaker positioned 24 cm directly above the enclosure provided the broadband tone pulses. A piezoelectric accelerometer affixed to the animal enclosure frame was used to detect and transduce motion resulting from the animals' startle response. Tone pulse parameters were controlled by a microcomputer using the software package (SR-LAB) and interface assembly that also digitized (0-4095), rectified, and recorded stabilimeter readings. All PPI studies were conducted between 09:00 and 17:00 h. Animals randomly received either saline or sildenafil (7.5 mg/kg i.p.) treatment. […] On the first two trials, the magnitude of the startle response to a 30 ms lasting 120 dB tone was measured. […] ASR was measured at each of the four prepulse intensities on five trials; animals were randomly presented with the startle tone alone during the other 10 trials. […]
# Fmr1 KO mice [9] = assay: Locomotor activity in activity boxes (open field); format: in vivo, mouse; conditions: sildenafil 7.5 mg/kg i.p.
# Description: Behavior experiments-locomotor activity: The locomotor activity was measured in an environment (activity boxes) novel to the animals, as described previously. Briefly, mice were handled for about 5 minutes once a day for one week before the testing. On the day of testing, animals were brought in their home cages to the anteroom (a room adjacent to the testing room separated by a door) and kept there for 30 minutes before drug or vehicle administration. Animals of both genotypes were randomly divided into two groups. One group received an i.p. injection of sildenafil (7.5 mg/kg; drug dissolved in sterilized PBS with 2% DMSO) and the other group an i.p. injection of the vehicle. One hour after the drug or vehicle administrations, the animals were placed in individual activity boxes (AccuScan Instruments, Inc., Columbus, OH, USA) (L×W×H=17.5 cm×10 cm×26 cm) in a dimly lit testing room where their locomotor activity was monitored for 90 min. The activity boxes were equipped with infrared sensors; beam breaks by the animals were used to assess locomotor activity. Data were collected using the Versamax™ Software (version 4.0, 2004; AccuScan Instruments, Inc.). The total horizontal activity for the whole 90 min session was used in the analysis.
smiles,measurement,setting,value
"N[C@H](CCCP(=O)(O)O)C(=O)O [APV, (2R)-amino-5-phosphonovaleric acid]",long-term increase in basal firing rates after HFS of PFs,"[1]; WT stellate cells, 10 μM APV, 25 minutes after HFS",no long-term increase; also recorded: no increase in action potential firing
same,decrease of failure rate post-HFS,"[2]; WT mice, in the presence of APV, data not shown",~5%
CCCCC[C@H](O)/C=C/[C@@H]1[C@@H](C/C=C\CCCC(=O)O)[C@H]2CO[C@@H]1C2 [U46619],"frequency of blood vessel constriction, Fmr1 KO brain slices compared to WT",[3]; 75 nM,much less frequently
same,"vasoconstriction, Fmr1 KO brain slices compared to WT",[3]; 150 nM,reduced vasoconstriction
same,"blood vessels with no response (no constriction), number","[3]; Fmr1 KO mice, [U46619] 75 nM",2
same,"blood vessels with response (constricted), number","[3]; Fmr1 KO mice, [U46619] 75 nM",8
same,proportion of blood vessels that constricted,"[3]; Fmr1 KO mice, [U46619] 75 nM",80%
same,"blood vessels with no response (no constriction), number","[3]; Fmr1 KO mice, [U46619] 150 nM",11
same,"blood vessels with response (constricted), number","[3]; Fmr1 KO mice, [U46619] 150 nM",25
same,proportion of blood vessels that constricted,"[3]; Fmr1 KO mice, [U46619] 150 nM",69%
same,"blood vessels with no response (no constriction), number","[3]; WT mice, [U46619] 75 nM",3
same,"blood vessels with response (constricted), number","[3]; WT mice, [U46619] 75 nM",10
same,proportion of blood vessels that constricted,"[3]; WT mice, [U46619] 75 nM",77%
same,"blood vessels with no response (no constriction), number","[3]; WT mice, [U46619] 150 nM",2
same,"blood vessels with response (constricted), number","[3]; WT mice, [U46619] 150 nM",18
same,proportion of blood vessels that constricted,"[3]; WT mice, [U46619] 150 nM",90%
same,"ability to vasoconstrict blood vessels, WT vs Fmr1 KO in all the conditions",[3]; cerebellum (FIG. 5N),similar
same,"ability to vasoconstrict blood vessels, WT vs Fmr1 KO in all the conditions",[4]; cortex (FIG. 5O),similar
same,"vasoconstriction of MCA/PCA, Fmr1 KO compared to WT",[5],reduced
CCCc1nn(C)c2c(=O)[nH]c(-c3cc(S(=O)(=O)N4CCN(C)CC4)ccc3OCC)nc12 [sildenafil],effect on the NMDA response (vasodilation),"[3]; Fmr1 KO cerebellum, pre-incubation with sildenafil",little or no effect
same,effect on the NMDA response (vasodilation),"[4]; Fmr1 KO cortex, pre-incubation with sildenafil, at least some blood vessels",rescue some of the deficits
same,long-term increase in baseline firing rates following HFS of PFs,"[1]; Fmr1 KO stellate cells, pre-treatment with 100 μM sildenafil",restored the long-term increase in baseline firing rates
same,"GABAR plasticity (NMDAR-mediated inhibitory synapse strengthening), current-clamp",[6],rescued the complete loss of GABAR plasticity
same,"GABAR plasticity (NMDAR-mediated inhibitory synapse strengthening), voltage-clamp",[7]; 100 μM sildenafil,rescued the complete loss of GABAR plasticity
same,baseline properties of the cells,"[7]; current-clamp and voltage-clamp, data not shown","did not, however, affect baseline properties"
same,deficits in prepulse inhibition (PPI),Fmr1 KO mice [8],fully correct deficits; also recorded: rescued
same,enhanced locomotor activity / deficits in locomotion,Fmr1 KO mice [9],normalized the enhanced locomotor activity; also recorded: rescued
same,failure rate (mean),"[2]; Fmr1 KO stellate cells, 10−100 μM sildenafil in the patch electrode, baseline, n=5",90.9+/−3.57%
same,"failure rate, failed events (mean)","[2]; Fmr1 KO stellate cells, 10−100 μM sildenafil in the patch electrode, post-HFS, n=5",59.44+/−8.36%
same,iLTP following HFS of parallel fibers,"[2]; Fmr1 KO stellate cells, sildenafil in the patch electrode",remarkable restoration of iLTP
